Converted amounts (≈) assume the structure as drawn. The source made the active and inactive calls. No cut-off for these calls is given here.

Data set [1] deals with Staphylococcus aureus. The experiment in a line: Resistance index, ratio of MIC100 for antibacterial activity against clinically isolated Staphylococcus aureus ATCC29213 assessed as inhibition of bacterial growth at 1/2 times of MIC measured after 24 consecutive passages to MIC100 for antibacterial activity against clinically isolated Staphylococcus aureus ATCC29213. Format: functional.

The test system of data set [2] is Escherichia coli. The data set can be described thus: Antibacterial activity against clinically isolated Escherichia coli ATCC25922 assessed as inhibition of bacterial growth measured after 16 to 24 hrs by broth microdilution method. Format: functional. Particulars: time 16-24 hrs, read-out: MIC100.
The subject of data set [3] is Escherichia coli. The data set can be described thus: Antibacterial activity against clinically isolated Escherichia coli DE17 assessed as inhibition of bacterial growth measured after 16 to 24 hrs by broth microdilution method. Format: functional. Particulars: time 16-24 hrs, read-out: MIC100. For orientation: In broth dilution the organism is exposed to a series of concentrations in liquid medium.

Data set [4] concerns Staphylococcus aureus. The experiment in a line: Antibacterial activity against clinically isolated Staphylococcus aureus ATCC29213 assessed as inhibition of bacterial growth measured after 16 to 24 hrs by broth microdilution method. Particulars: time 16-24 hrs, read-out: MIC100. Format: functional.
Data set [5] deals with Staphylococcus aureus. The data set can be described thus: Antibacterial activity against clinically isolated methicillin-resistant Staphylococcus aureus assessed as inhibition of bacterial growth measured after 16 to 24 hrs by broth microdilution method. Format: functional. Particulars: time 16-24 hrs, read-out: MIC100.
The next data set concerns Bacillus subtilis. The data set can be described thus: Antibacterial activity against clinically isolated Bacillus subtilis ATCC6633 assessed as inhibition of bacterial growth measured after 16 to 24 hrs by broth microdilution method. Format: functional. The following applies: time 16-24 hrs, read-out: MIC100.
The next data set has as its system Bacillus cereus. The data set can be described thus: Antibacterial activity against clinically isolated Bacillus cereus CMCC63303 assessed as inhibition of bacterial growth measured after 16 to 24 hrs by broth microdilution method. Format: functional. Particulars: time 16-24 hrs, read-out: MIC100.
In the next data set the test system is Listeria monocytogenes. The data set can be described thus: Antibacterial activity against clinically isolated Listeria monocytogenes CICC21662 assessed as inhibition of bacterial growth measured after 16 to 24 hrs by broth microdilution method. Format: functional. Particulars: time 16-24 hrs, read-out: MIC100.
The subject of another data set is Enterococcus faecalis. The data set can be described thus: Antibacterial activity against clinically isolated Enterococcus faecalis ATCC29212 assessed as inhibition of bacterial growth measured after 16 to 24 hrs by broth microdilution method. Format: functional. Particulars: time 16-24 hrs, read-out: MIC100.
Data set [6] can be described thus: Hemolytic activity in rabbit erythrocytes assessed as hemolysis at >8 ug/ml. The following applies: erythrocyte, dose > 8 µg/ml. Format: toxicity, cell-based, Oryctolagus cuniculus.
Data set [7] is described as follows: In vivo toxicity in KM mouse assessed as survival rate at 40 mg/kg, sc relative to control. Format: organism-based.
Data set [8] can be described thus: In vivo toxicity in KM mouse assessed as survival rate at 20 mg/kg, sc relative to control. Format: organism-based.
Data set [9] can be described thus: In vivo toxicity in KM mouse assessed as survival rate at 15 mg/kg, sc relative to control. Format: organism-based.
Data set [10] can be described thus: In vivo toxicity in KM mouse assessed as survival rate at 10 mg/kg, sc relative to control. Format: organism-based.
The nature of data set [11]: In vivo toxicity in KM mouse assessed as survival rate at 5 mg/kg, sc relative to control. Format: organism-based.
The nature of data set [12]: In vivo toxicity in KM mouse assessed as redness and swelling skin at site of compound administration at 20 to 40 mg/kg, sc. Format: organism-based. The following applies: dose 20-40 mg/kg.
A short description of data set [13]: In vivo toxicity in KM mouse assessed as platelet count (PLT) in blood collected from eyes of mouse at 15 mg/kg, sc. Format: organism-based.
Data set [14] is described as follows: In vivo toxicity in KM mouse assessed as hemoglobin (HGB) in blood collected from eyes of mouse at 15 mg/kg, sc. Format: organism-based.
A short description of data set [15]: In vivo toxicity in KM mouse assessed as red blood cells (RBC) in blood collected from eyes of mouse at 15 mg/kg, sc. Format: organism-based.
The nature of data set [16]: In vivo toxicity in KM mouse assessed as mean corpuscular volume (MCV) in blood collected from eyes of mouse at 15 mg/kg, sc. Format: organism-based.
Data set [17] is described as follows: In vivo toxicity in KM mouse assessed as hematocrit (HCT) in blood collected from eyes of mouse at 15 mg/kg, sc. Format: organism-based.
Data set [18] can be described thus: In vivo toxicity in KM mouse assessed as white blood cells (WBC) in blood collected from eyes of mouse at 15 mg/kg, sc. Format: organism-based.
A short description of data set [19]: In vivo toxicity in KM mouse assessed as urea (UREA) in blood collected from eyes of mouse at 15 mg/kg, sc. Format: organism-based.
Data set [20] is described as follows: In vivo toxicity in KM mouse assessed as albumin (ALB) in blood collected from eyes of mouse at 15 mg/kg, sc. Format: organism-based.
A short description of data set [21]: In vivo toxicity in KM mouse assessed as creatinine (CREA) in blood collected from eyes of mouse at 15 mg/kg, sc. Format: organism-based.
In data set [22] the test system is Staphylococcus aureus. The data set can be described thus: In vivo antibacterial activity against clinically isolated Staphylococcus aureus ATCC29213 infected KM mouse skin abscess model assessed as reduction in size of abscess in dorsal skin and intradermal tissue at 5 mg/kg, sc measured after 24 hrs by Hematoxylin and Eosin staining based analysis. Format: functional, organism-based.

Data set [23] relates to Staphylococcus aureus. The data set can be described thus: In vivo antibacterial activity against clinically isolated Staphylococcus aureus ATCC29213 infected KM mouse skin abscess model assessed as aggregation of inflammatory cells into epidermis and dermis of skin at 5 mg/kg, sc measured after 24 hrs by Hematoxylin and Eosin staining based analysis. Format: functional, organism-based.

The subject of data set [24] is Staphylococcus aureus. The data set can be described thus: In vivo antibacterial activity against clinically isolated Staphylococcus aureus ATCC29213 infected KM mouse skin abscess model assessed as decrease in bacterial survival in skin at 5 mg/kg, sc measured after 24 hrs by Hematoxylin and Eosin staining based analysis. Format: functional, organism-based.
Data set [25] has as its system Staphylococcus aureus. The experiment in a line: In vivo antibacterial activity against clinically isolated Staphylococcus aureus ATCC29213 infected KM mouse skin abscess model assessed as decrease in bacterial load in skin at 5 mg/kg, sc measured after 24 hrs by Hematoxylin and Eosin staining based analysis. Format: functional, organism-based.
A further data set deals with RAW264.7. The experiment in a line: Anti-inflammatory activity against mouse RAW264.7 cells assessed as inhibition LPS-stimulated NO production 0.5 to 4 ug/ml measured after 24 hrs by NO assay kit. Format: functional, cell-based. The following applies: dose 0.5-4 µg/ml.
For data set [26], the system named is Staphylococcus aureus. The data set can be described thus: Anti-biofilm activity against clinically isolated Staphylococcus aureus ATCC29213 assessed inhibition of biofilm formation at 0.5 to 128 ug/ml measured after 12 to 16 hrs incubation by crystal violet staining based analysis. Format: functional, organism-based. Particulars: dose 0.5-128 µg/ml, time 12-16 hrs.

In data set [27] the test system is Escherichia coli. The data set can be described thus: Anti-biofilm activity against clinically isolated Escherichia coli DE17 assessed inhibition of biofilm formation at 0.5 to 128 ug/ml measured after 12 to 16 hrs incubation by crystal violet staining based analysis. Particulars: dose 0.5-128 µg/ml, time 12-16 hrs. Format: functional, organism-based.
In data set [28] the test system is Staphylococcus aureus. The experiment in a line: Anti-biofilm activity against clinically isolated Staphylococcus aureus ATCC29213 assessed inhibition of biofilm formation at 2 ug/ml measured after 12 to 16 hrs incubation by crystal violet staining based analysis. Format: functional. The following applies: time 12-16 hrs.
Data set [29] concerns Staphylococcus aureus. The experiment in a line: Anti-biofilm activity against clinically isolated Staphylococcus aureus ATCC29213 assessed inhibition of biofilm formation at 4 ug/ml measured after 12 to 16 hrs incubation by crystal violet staining based analysis. Format: functional. Particulars: time 12-16 hrs.
In data set [30] the test system is Escherichia coli. The data set can be described thus: Anti-biofilm activity against clinically isolated Escherichia coli DE17 assessed inhibition of biofilm formation at 8 ug/ml measured after 12 to 16 hrs incubation by crystal violet staining based analysis. Format: functional. The following applies: time 12-16 hrs.
In data set [31] the test system is Escherichia coli. The experiment in a line: Anti-biofilm activity against clinically isolated Escherichia coli DE17 assessed inhibition of biofilm formation at 16 ug/ml measured after 12 to 16 hrs incubation by crystal violet staining based analysis. Format: functional. Particulars: time 12-16 hrs.
For data set [32], the system named is Staphylococcus aureus. The data set can be described thus: Biofilm eradication activity against Staphylococcus aureus ATCC29213 assessed biofilm scavenging at 2 ug/ml measured after 12 to 16 hrs incubation by crystal violet staining based analysis. The following applies: dose 2.0 µg/ml, time 12-16 hrs. Format: functional, organism-based.
Data set [33] concerns Escherichia coli. The data set can be described thus: Biofilm eradication activity against Escherichia coli DE17 assessed biofilm scavenging at 8 ug/ml measured after 12 to 16 hrs incubation by crystal violet staining based analysis. Particulars: dose 8.0 µg/ml, time 12-16 hrs. Format: functional, organism-based.
The subject of data set [34] is Staphylococcus aureus. The data set can be described thus: Antibacterial activity against clinically isolated Staphylococcus aureus ATCC29213 assessed as inhibition of bacterial growth at 2 times of MIC measured after 18 hrs by broth microdilution method. Format: functional.
Data set [35] deals with Staphylococcus aureus. The experiment in a line: Antibacterial activity against clinically isolated Staphylococcus aureus ATCC29213 assessed as inhibition of bacterial growth at 1/2 times of MIC measured after 24 consecutive passages by broth microdilution method. Format: functional, organism-based.

For the compound `Cc1onc(-c2ccccc2)c1C(=O)N[C@@H]1C(=O)N2[C@@H]1SC(C)(C)[C@@H]2C(=O)O` [OXACILLIN], the Ratio in the data set on Staphylococcus aureus [1] was 8.

A word on the inhibition: it is how much of the control response was suppressed. High values mean a response far below the control, low ones a response near the control. In the case of `CCN(CC)CCCCCCCCCCCCOc1ccc2ccc(=O)oc2c1`, the MIC with Escherichia coli [2] is greater than 256 µg/mL; in the data set with Escherichia coli [3], greater than 256 µg/mL; with Staphylococcus aureus [4], 1 µg/mL (≈ 2.49 µM); with Staphylococcus aureus [5], 2 µg/mL (≈ 4.98 µM); in the data set on Bacillus subtilis, 1 µg/mL (≈ 2.49 µM); in the data set with Bacillus cereus it was 4 µg/mL (≈ 9.96 µM). Moreover, the MIC in the data set on Listeria monocytogenes came out at 2 µg/mL (≈ 4.98 µM); in the data set on Enterococcus faecalis it was 4 µg/mL (≈ 9.96 µM). The Activity entry in data set [6] was “Toxic”; in [12] it was “Toxic”; in [13] it was “Non-toxic”; in [14], “Non-toxic”; in data set [15] it was “Non-toxic”; in data set [16], “Non-toxic”. Moreover, the Activity entry in data set [17] is “Non-toxic”; in data set [18] it was “Non-toxic”; in data set [19] it was “Non-toxic”; in data set [20], “Non-toxic”; in data set [21], “Non-toxic”; in the data set with Staphylococcus aureus [26], “Dose-dependent-effect”. Also, in the data set on Escherichia coli [27], the Activity entry was “Dose-dependent-effect”. Besides, the survival in data set [7], in [8], in [9], in data set [10] and in data set [11] was 100% throughout. Besides, the result in the data set with Staphylococcus aureus [22], in the data set on Staphylococcus aureus [23], with Staphylococcus aureus [24], in the data set with Staphylococcus aureus [25], in the data set on RAW264.7 and in the data set on Staphylococcus aureus [32] was Active. The outcome in the data set on Escherichia coli [33] and with Staphylococcus aureus [35] was Active. Further, in the data set on Staphylococcus aureus [28], the inhibition at 2 µg/mL amounted to 100%. The same compound returned an inhibition at 4 µg/mL with Staphylococcus aureus [29] of 100%. 8 µg/mL produced 100% inhibition in the data set with Escherichia coli [30]. The inhibition at 16 µg/mL with Escherichia coli [31] amounted to 100%. Further, in the data set on Staphylococcus aureus [34], the “inhibition (INH)” value is listed as 100%.

(Values after ChEMBL document CHEMBL6182832, “Design and synthesis of coumarin-based amphoteric antimicrobials with biofilm interference and immunoregulation effects” (RSC Med Chem, 2025).)
